Test [1] deals with U-251. Kind of test: Induction of mitochondrial stress in human U-251 cells assessed as decrease in ATP production after 24 hrs by microplate reader analysis. It counts as functional, cell-based.
Test [2] is described as follows: Cytotoxicity against human […] cells assessed as reduction in cell viability incubated for 72 hrs by MTT assay. The format is functional, cell-based.
The test system of the next test is K562. As to the kind of experiment: Cytotoxicity against human K562 cells assessed as reduction in cell viability incubated for 72 hrs by MTT assay. It counts as functional, cell-based. To be noted: K562, 72 h.
Test [3] is described as follows: Inhibition of rat liver TrxR using DTNB and NADPH as substrate preincubated for 10 mins followed by substrate addition. The format is tissue-based.
Another test has as its system C6. As to the kind of experiment: Cytotoxicity against rat C6 cells assessed as reduction in cell viability incubated for 72 hrs by MTT assay. The format is functional, cell-based. As to conditions: C6, 72 h.
In the next test the test system is A549. As to the kind of experiment: Cytotoxicity against human A549 cells assessed as reduction in cell viability incubated for 72 hrs by MTT assay. The format is functional, cell-based. As to conditions: A549, 72 h.
Test [4] has as its system U-251. Kind of test: Cytotoxicity against human U-251 cells assessed as reduction in cell viability incubated for 72 hrs by MTT assay. As to conditions: U-251, 72 h. The format is functional, cell-based.
The subject of the next test is MDA-MB-231. Kind of test: Cytotoxicity against human MDA-MB-231 cells assessed as reduction in cell viability incubated for 72 hrs by MTT assay. To be noted: MDA-MB-231, 72 h. The format is functional, cell-based.
The test system of the next test is HUVEC. Kind of test: Cytotoxicity against HUVEC cells assessed as reduction in cell viability incubated for 72 hrs by MTT assay. As to conditions: Homo sapiens. It counts as cell-based.
Test [5] in a line: Cytotoxicity against human SHG-44 cells assessed as reduction in cell viability incubated for 72 hrs by MTT assay. As to conditions: SHG-44, 72 h. It counts as functional, cell-based.
Test [6] relates to U-251. Kind of test: Inhibition of mitochondrial respiration in human U-251 cells assessed as reduction in oxygen consumption rate at 10 uM pretreated for 24 hrs with sequential addition of oligomycin, FCCP and antimycin-A by seahorse XFe96 analyser based assay. It counts as functional, cell-based.
For test [7], the system named is U-251. Kind of test: Inhibition of TrxR in human U-251 cells at 10 uM measured after 12 hrs by colorimetry. The format is cell-based.
A short description of test [8]: Cytotoxicity against human U87/TMZ cells assessed as reduction in cell viability incubated for 72 hrs by MTT assay. The format is functional, cell-based.
Another test deals with U-87 MG. As to the kind of experiment: Cytotoxicity against human U87 cells assessed as reduction in cell viability incubated for 72 hrs by MTT assay. It counts as functional, cell-based, U-87MG ATCC.
The test system of a further test is HepG2. As to the kind of experiment: Cytotoxicity against human HepG2 cells assessed as reduction in cell viability incubated for 72 hrs by MTT assay. The format is functional, cell-based. As to conditions: HepG2, 72 h.

Activity calls are given as the source filed them. The rule behind the calls is not given here. A value given as a limit tells only on which side of the number the result lay.

As for `COc1cc(/C=C/C(=O)/C=C(O)/C=C/c2ccc(O)cc2)ccc1O`, the outcome in the test with U-251 [1] and with U-251 [6] was inactive. The IC50 in [2] turned out to be 17.3 µM; with K562 it was 3.86 µM; in [3], 0.77 µM; in the test on C6, 7.16 µM; in the test with A549 it was 5.64 µM; in the test on U-251 [4], 2.72 µM. The IC50 amounted to 9.36 µM with MDA-MB-231; 32.6 µM in the test on HUVEC; 4.98 µM in test [5]; 21.5 µM in [8]; 5.45 µM with U-87 MG; 10.7 µM with HepG2. In the test on U-251 [7], the inhibition entry was “Active”.

Turning to `OCCCCCCCCCC[P+](c1ccccc1)(c1ccccc1)c1ccccc1`, the IC50 (in the test with K562; in test [3]; with A549; in the test on U-251 [4]; with MDA-MB-231; in the test with HepG2) was > 100 µM each time.

Regarding `COc1cc(/C=C/C(=O)CC(=O)/C=C/c2ccc(O)c(OC)c2)ccc1O` [CURCUMIN], the IC50 is 46.8 µM in the test on K562, 24.2 µM in the test with A549, 25.8 µM in the test with U-251 [4] and 31.4 µM in the test with MDA-MB-231.

(Values after ChEMBL document CHEMBL4837221 (Eur J Med Chem, 2021).)
